PubChem BioAssay (NCI)
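Growth conditions: 96-well plates. Treatment: test compound, 48 hours, 5 concentrations. Analysis: linear interpolation between bracketing concentrations; unreached endpoints set to highest concentration. GI50 = concentration required for 50% inhibition of growth. Definition used: TGI = concentration required for complete inhibition of growth.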

How the values were obtained:
Experiment in all cases: NCI tumour cell line growth inhibition, 48 h
SW-620 colon = test system: SW-620 colon
NCI-H460 lung = test system: NCI-H460 lung
COLO 205 colon = test system: COLO 205 colon
UO-31 renal = test system: UO-31 renal
SK-OV-3 ovarian = test system: SK-OV-3 ovarian
HCT-116 colon = test system: HCT-116 colon
BT-549 breast = test system: BT-549 breast
SN12C renal = test system: SN12C renal
SF-295 CNS = test system: SF-295 CNS
EKVX NSCLC = test system: EKVX NSCLC
M14 melanoma = test system: M14 melanoma
LOX IMVI melanoma = test system: LOX IMVI melanoma
T-47D breast = test system: T-47D breast
RXF 393 renal = test system: RXF 393 renal
SK-MEL-5 melanoma = test system: SK-MEL-5 melanoma
SNB-75 CNS = test system: SNB-75 CNS
UACC-257 melanoma = test system: UACC-257 melanoma
RPMI-8226 leukemia = test system: RPMI-8226 leukemia
NCI-H226 lung = test system: NCI-H226 lung
ACHN renal = test system: ACHN renal
U251 CNS = test system: U251 CNS
HCC-2998 colon = test system: HCC-2998 colon
NCI-H522 lung = test system: NCI-H522 lung
OVCAR-5 ovarian = test system: OVCAR-5 ovarian
MCF7 breast = test system: MCF7 breast
UACC-62 melanoma = test system: UACC-62 melanoma
NCI/ADR-RES ovarian = test system: NCI/ADR-RES ovarian
OVCAR-8 ovarian = test system: OVCAR-8 ovarian
CAKI-1 renal = test system: CAKI-1 renal
HOP-62 NSCLC = test system: HOP-62 NSCLC
SF-268 CNS = test system: SF-268 CNS
HL-60(TB) leukemia = test system: HL-60(TB) leukemia
IGROV1 ovarian = test system: IGROV1 ovarian
PC-3 prostate = test system: PC-3 prostate
SNB-19 CNS = test system: SNB-19 CNS
HT29 colon = test system: HT29 colon
SK-MEL-2 melanoma = test system: SK-MEL-2 melanoma
NCI-H23 lung = test system: NCI-H23 lung
786-0 renal = test system: 786-0 renal
MALME-3M melanoma = test system: MALME-3M melanoma
KM12 colon = test system: KM12 colon
MDA-MB-231 breast = test system: MDA-MB-231 breast
CCRF-CEM leukemia = test system: CCRF-CEM leukemia
DU-145 prostate = test system: DU-145 prostate
MOLT-4 leukemia = test system: MOLT-4 leukemia
OVCAR-4 ovarian = test system: OVCAR-4 ovarian
SF-539 CNS = test system: SF-539 CNS
HCT-15 colon = test system: HCT-15 colon
MDA-MB-435 = test system: MDA-MB-435
SR leukemia = test system: SR leukemia
A549 NSCLC = test system: A549 NSCLC
TK-10 renal = test system: TK-10 renal
HS 578T breast = test system: HS 578T breast
SK-MEL-28 melanoma = test system: SK-MEL-28 melanoma
A498 renal = test system: A498 renal
HOP-92 NSCLC = test system: HOP-92 NSCLC
K-562 leukemia = test system: K-562 leukemia

Q: What does the source list for `O=C(O)c1ccc(-n2c(=O)n(-c3cccc(C(F)(F)F)c3)c(=O)c3cc(-c4ccc(F)cc4F)ccc32)cc1`?
A: GI50 (SW-620 colon): 2.03 µM; TGI (SW-620 colon): 4.96 µM; GI50 (NCI-H460 lung): 1.58 µM; TGI (NCI-H460 lung): 8.21 µM; GI50 (COLO 205 colon): 2.85 µM; TGI (COLO 205 colon): 7.41 µM; GI50 (UO-31 renal): 2.54 µM; TGI (UO-31 renal): 9.57 µM; GI50 (SK-OV-3 ovarian): 1.45 µM; TGI (SK-OV-3 ovarian): 4.12 µM; GI50 (HCT-116 colon): 1.1 µM; TGI (HCT-116 colon): 2.39 µM; GI50 (BT-549 breast): 1.54 µM; TGI (BT-549 breast): 3.11 µM; GI50 (SN12C renal): 1.91 µM; TGI (SN12C renal): 8.29 µM; GI50 (SF-295 CNS): 1.82 µM; TGI (SF-295 CNS): 3.82 µM; GI50 (EKVX NSCLC): 2.53 µM; TGI (EKVX NSCLC): 8.53 µM; GI50 (M14 melanoma): 1.58 µM; TGI (M14 melanoma): 3.72 µM; GI50 (LOX IMVI melanoma): 1.73 µM; TGI (LOX IMVI melanoma): 3.53 µM; GI50 (T-47D breast): 1.79 µM; TGI (T-47D breast): 6.21 µM; GI50 (RXF 393 renal): 1.48 µM; TGI (RXF 393 renal): 3.47 µM; GI50 (SK-MEL-5 melanoma): 0.49 µM; TGI (SK-MEL-5 melanoma): 1.88 µM; GI50 (SNB-75 CNS): 1.93 µM; TGI (SNB-75 CNS): 7.02 µM; GI50 (UACC-257 melanoma): 1.6 µM; TGI (UACC-257 melanoma): 4.96 µM; GI50 (RPMI-8226 leukemia): 1.7 µM; TGI (RPMI-8226 leukemia): 7.05 µM; GI50 (NCI-H226 lung): 1.72 µM; TGI (NCI-H226 lung): 4.8 µM; GI50 (ACHN renal): 2.67 µM; TGI (ACHN renal): 10.6 µM; GI50 (U251 CNS): 2.06 µM; TGI (U251 CNS): 10.7 µM; GI50 (HCC-2998 colon): 3.03 µM; TGI (HCC-2998 colon): 9.71 µM; GI50 (NCI-H522 lung): 0.576 µM; TGI (NCI-H522 lung): 3.98 µM; GI50 (OVCAR-5 ovarian): 3.61 µM; TGI (OVCAR-5 ovarian): 28.5 µM; GI50 (MCF7 breast): 2 µM; TGI (MCF7 breast): 9.29 µM; GI50 (UACC-62 melanoma): 0.582 µM; TGI (UACC-62 melanoma): 2.51 µM; GI50 (NCI/ADR-RES ovarian): 2.63 µM; TGI (NCI/ADR-RES ovarian): 15.2 µM; GI50 (OVCAR-8 ovarian): 2.03 µM; TGI (OVCAR-8 ovarian): 8.43 µM; GI50 (CAKI-1 renal): 2.11 µM; TGI (CAKI-1 renal): 6.96 µM; GI50 (HOP-62 NSCLC): 2.04 µM; TGI (HOP-62 NSCLC): 4.66 µM; GI50 (SF-268 CNS): 2.37 µM; TGI (SF-268 CNS): 15 µM; GI50 (HL-60(TB) leukemia): 0.323 µM; TGI (HL-60(TB) leukemia): 11.1 µM; GI50 (IGROV1 ovarian): 2.91 µM; TGI (IGROV1 ovarian): 20.5 µM; GI50 (PC-3 prostate): 2.86 µM; TGI (PC-3 prostate): 8.76 µM; GI50 (SNB-19 CNS): 2.03 µM; TGI (SNB-19 CNS): 31.1 µM; GI50 (HT29 colon): 3.58 µM; TGI (HT29 colon): 13.7 µM; GI50 (SK-MEL-2 melanoma): 1.04 µM; TGI (SK-MEL-2 melanoma): 2.91 µM; GI50 (NCI-H23 lung): 1.56 µM; TGI (NCI-H23 lung): 5.88 µM; GI50 (786-0 renal): 1.83 µM; TGI (786-0 renal): 3.63 µM; GI50 (MALME-3M melanoma): 1.78 µM; TGI (MALME-3M melanoma): 5.42 µM; GI50 (KM12 colon): 2.59 µM; TGI (KM12 colon): 7.49 µM; GI50 (MDA-MB-231 breast): 2.18 µM; TGI (MDA-MB-231 breast): 6.71 µM; GI50 (CCRF-CEM leukemia): 3.32 µM; TGI (CCRF-CEM leukemia): 20.9 µM; GI50 (DU-145 prostate): 3.37 µM; TGI (DU-145 prostate): 14.2 µM; GI50 (MOLT-4 leukemia): 1.44 µM; TGI (MOLT-4 leukemia): 6.16 µM; GI50 (OVCAR-4 ovarian): 2.82 µM; TGI (OVCAR-4 ovarian): 35 µM; GI50 (SF-539 CNS): 2.2 µM; TGI (SF-539 CNS): 8.17 µM; GI50 (HCT-15 colon): 1.04 µM; TGI (HCT-15 colon): 3 µM; GI50 (MDA-MB-435): 2.31 µM; TGI (MDA-MB-435): 7.62 µM; GI50 (SR leukemia): 0.555 µM; TGI (SR leukemia): 4.07 µM; GI50 (A549 NSCLC): 2.96 µM; TGI (A549 NSCLC): 13.5 µM; GI50 (TK-10 renal): 3.86 µM; TGI (TK-10 renal): 8.4 µM; GI50 (HS 578T breast): 2.12 µM; TGI (HS 578T breast): 6.98 µM; GI50 (SK-MEL-28 melanoma): 1.85 µM; TGI (SK-MEL-28 melanoma): 6.79 µM; GI50 (A498 renal): 0.524 µM; TGI (A498 renal): 1.87 µM; GI50 (HOP-92 NSCLC): 0.525 µM; TGI (HOP-92 NSCLC): 3.54 µM; GI50 (K-562 leukemia): 0.335 µM; TGI (K-562 leukemia): 7.74 µM
